System: mice
Assay: In vivo delivery of FLuc-mRNA lipid nanoparticles in mice, in vivo imaging (IVIS)
Details: for IVIS / % of organ targeting: Fluc-mRNA LNP, formulation, molar ratio and N/P as in the table
How it was run: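 Mice (n=3) received about 75 μL FLuc-mRNA LNP per mouse intramuscularly (rectus femoris), intravenously (tail vein), intraperitoneally or subcutaneously (back). After injection, D-luciferin (200 μL, 15 mg/mL) was given i.p. 10-15 min before IVIS imaging.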

SMILES: CCCCCCCCC(CCCCCC)C(=O)NCCOC(=O)C(O)CN(CCCN(CC(O)C(=O)OCCNC(=O)C(CCCCCC)CCCCCCCC)CC(O)C(=O)OCCNC(=O)C(CCCCCC)CCCCCCCC)CCCN(CC(O)C(=O)OCCNC(=O)C(CCCCCC)CCCCCCCC)CC(O)C(=O)OCCNC(=O)C(CCCCCC)CCCCCCCC (stereo not shown) [Compound L0375]
- IVIS (route IM, organ not given): 1.41E+05
- IVIS (route IV, organ not given): 3.72E+05

SMILES: CCCCCCC(CCCCCC)C(=O)OCCCCNC(=O)C(O)CN(CCCN(CC(O)C(=O)NCCCCOC(=O)C(CCCCCC)CCCCCC)CC(O)C(=O)NCCCCOC(=O)C(CCCCCC)CCCCCC)CCCN(CC(O)C(=O)NCCCCOC(=O)C(CCCCCC)CCCCCC)CC(O)C(=O)NCCCCOC(=O)C(CCCCCC)CCCCCC (stereo not shown) [Compound L0369]
- IVIS (route IM, organ not given): 6.07E+07
- IVIS (route IV, organ: body): 1.22E+10
- % of organ targeting (route IV, organ: liver): 98.57%
- IVIS (route IV, organ: liver): 4.47E+09
- % of organ targeting (route IV, organ: lung): 0.75%
- IVIS (route IV, organ: lung): 3.40E+07
- % of organ targeting (route IV, organ: spleen): 0.68%
- IVIS (route IV, organ: spleen): 3.07E+07

SMILES: CCCCCCCCCCCCNC(=O)C(CN(CCCN(C)CCCN(CC(OC(=O)CCCCC)C(=O)NCCCCCCCCCCCC)CC(OC(=O)CCCCC)C(=O)NCCCCCCCCCCCC)CC(OC(=O)CCCCC)C(=O)NCCCCCCCCCCCC)OC(=O)CCCCC (stereo not shown) [Compound L0389]
- IVIS (route IM, organ not given): 1.99E+04
- IVIS (route IV, organ not given): 2.50E+05

SMILES: CCCCCCCCC(CCCCCC)C(=O)OCCCCCCNC(=O)C(O)CN(CCCN(C)CCCN(CC(O)C(=O)NCCCCCCOC(=O)C(CCCCCC)CCCCCCCC)CC(O)C(=O)NCCCCCCOC(=O)C(CCCCCC)CCCCCCCC)CC(O)C(=O)NCCCCCCOC(=O)C(CCCCCC)CCCCCCCC (stereo not shown) [Compound L0370]
- IVIS (route IM, organ not given): 1.68E+07
- IVIS (route IV, organ: body): 1.43E+07
- % of organ targeting (route IV, organ: liver): 4.65%
- IVIS (route IV, organ: liver): 8.65E+05
- % of organ targeting (route IV, organ: lung): 17.97%
- IVIS (route IV, organ: lung): 3.34E+06
- % of organ targeting (route IV, organ: spleen): 77.39%
- IVIS (route IV, organ: spleen): 1.44E+07

SMILES: CCCCCCCC(CCCCCCC)OC(=O)CCCNC(=O)C(O)CN(CCCN(C)CCCN(CC(O)C(=O)NCCCC(=O)OC(CCCCCCC)CCCCCCC)CC(O)C(=O)NCCCC(=O)OC(CCCCCCC)CCCCCCC)CC(O)C(=O)NCCCC(=O)OC(CCCCCCC)CCCCCCC (stereo not shown) [Compound L0382]
- % of organ targeting (route IM, organ: liver): 35.27%
- IVIS (route IM, organ: liver): 5.75E+04
- % of organ targeting (route IM, organ: lung): 7.39%
- IVIS (route IM, organ: lung): 1.20E+04
- IVIS (route IM, organ: muscle): 4.83E+07
- % of organ targeting (route IM, organ: spleen): 57.34%
- IVIS (route IM, organ: spleen): 9.34E+04
- IVIS (route IV, organ: body): 1.60E+09
- % of organ targeting (route IV, organ: liver): 67.69%
- IVIS (route IV, organ: liver): 3.25E+08
- % of organ targeting (route IV, organ: lung): 9.82%
- IVIS (route IV, organ: lung): 4.72E+07
- % of organ targeting (route IV, organ: spleen): 22.49%
- IVIS (route IV, organ: spleen): 1.08E+08

SMILES: CCCCCCCC(CCCCCCC)OC(=O)CCCNC(=O)C(O)CN(CCN(C)CCN(CC(O)C(=O)NCCCC(=O)OC(CCCCCCC)CCCCCCC)CC(O)C(=O)NCCCC(=O)OC(CCCCCCC)CCCCCCC)CC(O)C(=O)NCCCC(=O)OC(CCCCCCC)CCCCCCC (stereo not shown) [Compound L0383]
- % of organ targeting (route IM, organ: liver): 29.05%
- IVIS (route IM, organ: liver): 1.91E+05
- % of organ targeting (route IM, organ: lung): 10.07%
- IVIS (route IM, organ: lung): 6.63E+04
- IVIS (route IM, organ: muscle): 1.78E+08
- % of organ targeting (route IM, organ: spleen): 60.88%
- IVIS (route IM, organ: spleen): 4.01E+05
- IVIS (route IV, organ: body): 2.00E+09
- % of organ targeting (route IV, organ: liver): 68.14%
- IVIS (route IV, organ: liver): 4.62E+08
- % of organ targeting (route IV, organ: lung): 2.23%
- IVIS (route IV, organ: lung): 1.52E+07
- % of organ targeting (route IV, organ: spleen): 29.63%
- IVIS (route IV, organ: spleen): 2.01E+08
- organ targeting specificity (spleen or lung), in words (Table 3, Fluc-mRNA, various formulations): strong targeting specificity to deliver to spleen

Reference: US12233161B1, “Lipids and lipid nanoparticle formulations” (LONGUIDE BIOPHARMA CORPORATION, priority 2024, dated 2025)
